According to patent publication US20230128114A1, “METHODS AND COMPOSITIONS FOR TREATING OR PREVENTING AN INFLAMMATORY CONDITION” (priority 2020, published 2023):
Read-outs that look alike come from different tables or passages of the source.

What was measured:
LPS-induced sepsis = LPS-induced sepsis in mice, intraperitoneal administration: serum immune marker panel (Luminex/ELISA); type: in vivo, C57BL/6 mice
Description: (§1) Male C57BL/6 mice weighing 10-20 g were used. Vehicle and active agents (i.e., CBD and hydroxychloroquine) alone or in combination were administered intraperitoneally (IP) (Table 4) or orally (Table 5) at 1 hour before LPS (100 μg/100 μL/mouse) injected intravenously (IV). At 2 hours after LPS injection, blood was collected from all mice by cardiac puncture, sera processed and assayed for biomarkers using either the Th17-plex for IL-1β, IL-2, IL-10, IL-12 (p70), IFN-γ and TNF-α by Luminex, plus IL-6 and D-dimer by ELISA, or the 23-plex for IL-1α, IL-1β, IL-2, IL-3, IL-4, IL-5, IL-6, IL-9, IL-10, IL-12(p40), IL-12(p70), IL-13, IL-17A, Eotaxin, G-CSF, GM-CSF, IFN-γ, KC, MCP-1(MCAF), MIP-1α, MIP-1β, RANTES, and TNF-α by Luminex, plus IL-6 by ELISA. ANOVA followed by Dunnett's test was applied for comparison between vehicle and treatment groups. p<0.05 is considered significant.

[1] = tested on: LPS-induced production of inflammatory cytokines; assay: LPS-induced sepsis in mice: synergy analysis (relative inhibition of cytokine release, Excess over Bliss); type: in vivo, C57BL/6 mice
Description: as §1
For synergy analysis, data were baseline subtracted using the cytokine levels of sham treated mice (i.e., no LPS injection), before normalising the values for each cytokine relative to maximum values across the groups. The normalised values were used to calculate the relative inhibition where a value of 1 represents complete inhibition and a value of 0 represents no inhibition. Synergy was calculated using the statistical methods described elsewhere herein.
(§2) Drug synergy was determined using the Bliss Independence method where the predicted effect of the drug combination is calculated using the equation: […]

[2] = tested on: human peripheral blood mononuclear cells (PBMCs) stimulated with bacterial lipopolysaccharide (LPS); assay: Cytokine release from LPS-stimulated human PBMCs (checkerboard, Luminex), Bliss synergy; type: cell-based; conditions: PBMC
Description: The anti-inflammatory activity the combination of CBD and hydroxychloroquine was assessed by determining cytokine release from human peripheral blood mononuclear cells (PBMCs) stimulated with bacterial lipopolysaccharide (LPS) using a Luminex based assay. A 96-well microtitre plate-based checkerboard assay with seven concentrations (including the no drug control) of CBD and hydroxychloroquine were assessed in combination was used to determine the drug-drug interaction. Briefly, frozen PMBCs from two independent donors were thawed, diluted in culture medium, seeded into 96-well microtitre plates and incubated at 37° C., 5% CO2 for 1 hour prior to the addition of test compounds. After the addition of the test compounds the cells were returned to the incubator for 1 hour, after which LPS was added to the wells. Plates were incubated at 37° C., 5% CO2 for 24 hours. After 24 hours, cell culture supernatants were removed and analysed for cytokine levels using Luminex methodology according to manufacturers' instructions. All values had the vehicle background subtracted prior to further analysis. Three plates were set up in parallel using the PBMCs from the same donor. Inhibition of cytokine release was determined relative to the no treatment control (i.e., that was stimulated with LPS) and averaged across the three replicates. A cytotoxicity assay using AlmarBlue with the identical plate set up was performed in parallel.
as §2
Synergy values for each combination of drug concentrations were calculated using the Excess Over Bliss method (the difference between the observed and predicted inhibition) described by, e.g., Liu et al. (2018, Statistics in Biopharmaceutical Research, 10: 112-122, where a value greater than 0 is indicative of synergy and the higher the value the stronger the synergy.

[3] = tested on: LPS-induced pulmonary inflammation; assay: LPS-induced pulmonary inflammation: BALF cytokines, synergy analysis; type: in vivo, C57BL/B6 mice; conditions: CBD 1 mg/kg, HCQ 25 mg/kg, alone or combined; observed
[4] = hydroxychloroquine 1, 5, 10, 25, 50 and 100 mg/kg IP
[5] = hydroxychloroquine 50 and 100 mg/kg IP
[6] = CBD 10 mg/kg, HCQ 100 mg/kg, alone or combined, observed

## CCN(CCO)CCCC(C)Nc1ccnc2cc(Cl)ccc12 (centres unmarked) [HCQ]
LPS-induced sepsis; [4]
  D-dimer level vs vehicle group: dose-dependent increase
  IL-10 level vs vehicle group: significant (p<0.05) increase
LPS-induced sepsis; [5]
  IFN-γ level vs vehicle group: moderate decrease
  IL-1β level vs vehicle group: significant (p<0.05) decreases
  IL-2 level vs vehicle group: significant (p<0.05) decreases
  IL-12(p70) level vs vehicle group: moderate decrease
  TNF-α level vs vehicle group: moderate decrease
[1]; [6]
  IFN-γ, relative inhibition of cytokine release: 0.74
  IL-1β, relative inhibition of cytokine release: 0.01
  IL-6, relative inhibition of cytokine release: 0.22
  IL-12(p70), relative inhibition of cytokine release: 0.72
  TNF-α, relative inhibition of cytokine release: 0.55
[1]; CBD 25 mg/kg, HCQ 100 mg/kg, alone or combined, observed
  IL-6, relative inhibition of cytokine release: 0.22
[1]; HCQ 25 mg/kg alone
  Relative inhibition of IFN-γ release in vivo: 0.57
  Relative inhibition of IL-12(p70) release in vivo: 0.56
  Relative inhibition of TNF-α release in vivo: 0.33
[1]; HCQ 25 mg/kg alone (Table 21)
  Relative inhibition of IL-6 release in vivo: 0.17
[1]; HCQ 25 mg/kg alone (Table 23)
  Relative inhibition of IL-6 release in vivo: 0.17
[2]; Donor 1, HCQ 0.63 μg/mL alone, read-out: FIE (fractional inhibitory effect), IL-1α release
  inhibition at 0.63 µg/mL: 3%
[2]; Donor 1, HCQ 0.63 μg/mL alone, read-out: FIE (fractional inhibitory effect), IL-1β release
  inhibition at 0.63 µg/mL: 8%
[2]; Donor 1, HCQ 0.63 μg/mL alone, read-out: FIE (fractional inhibitory effect), IL-6 release
  inhibition at 0.63 µg/mL: 12%
[2]; Donor 1, HCQ 0.63 μg/mL alone, read-out: FIE (fractional inhibitory effect), TNF-α release
  inhibition at 0.63 µg/mL: 0%
[2]; Donor 1, HCQ 1.25 μg/mL alone, read-out: FIE (fractional inhibitory effect), IL-1α release
  inhibition at 1.25 µg/mL: 1%
[2]; Donor 1, HCQ 1.25 μg/mL alone, read-out: FIE (fractional inhibitory effect), IL-1β release
  inhibition at 1.25 µg/mL: 7%
[2]; Donor 1, HCQ 1.25 μg/mL alone, read-out: FIE (fractional inhibitory effect), IL-6 release
  inhibition at 1.25 µg/mL: 0%
[2]; Donor 1, HCQ 1.25 μg/mL alone, read-out: FIE (fractional inhibitory effect), TNF-α release
  inhibition at 1.25 µg/mL: 8%
[2]; Donor 1, HCQ 2.50 μg/mL alone, read-out: FIE (fractional inhibitory effect), IL-1α release
  inhibition at 2.5 µg/mL: 12%
[2]; Donor 1, HCQ 2.50 μg/mL alone, read-out: FIE (fractional inhibitory effect), IL-1β release
  inhibition at 2.5 µg/mL: 8%
[2]; Donor 1, HCQ 2.50 μg/mL alone, read-out: FIE (fractional inhibitory effect), IL-6 release
  inhibition at 2.5 µg/mL: 10%
[2]; Donor 1, HCQ 2.50 μg/mL alone, read-out: FIE (fractional inhibitory effect), MIP-1α release
  inhibition at 2.5 µg/mL: 0%
[2]; Donor 1, HCQ 2.50 μg/mL alone, read-out: FIE (fractional inhibitory effect), TNF-α release
  inhibition at 2.5 µg/mL: 5%
[2]; Donor 1, HCQ 5.00 μg/mL alone, read-out: FIE (fractional inhibitory effect), IL-1α release
  inhibition at 5 µg/mL: 24%
[2]; Donor 1, HCQ 5.00 μg/mL alone, read-out: FIE (fractional inhibitory effect), IL-1β release
  inhibition at 5 µg/mL: 17%
[2]; Donor 1, HCQ 5.00 μg/mL alone, read-out: FIE (fractional inhibitory effect), IL-6 release
  inhibition at 5 µg/mL: 8%
[2]; Donor 1, HCQ 5.00 μg/mL alone, read-out: FIE (fractional inhibitory effect), TNF-α release
  inhibition at 5 µg/mL: 2%
[2]; Donor 1, HCQ 10.00 μg/mL alone, read-out: FIE (fractional inhibitory effect), IL-1α release
  inhibition at 10 µg/mL: 50%
[2]; Donor 1, HCQ 10.00 μg/mL alone, read-out: FIE (fractional inhibitory effect), IL-1β release
  inhibition at 10 µg/mL: 68%
[2]; Donor 1, HCQ 10.00 μg/mL alone, read-out: FIE (fractional inhibitory effect), IL-6 release
  inhibition at 10 µg/mL: 0%
[2]; Donor 1, HCQ 10.00 μg/mL alone, read-out: FIE (fractional inhibitory effect), TNF-α release
  inhibition at 10 µg/mL: 4%
[2]; Donor 1, HCQ 20.00 μg/mL alone, read-out: FIE (fractional inhibitory effect), IL-1α release
  inhibition at 20 µg/mL: 54%
[2]; Donor 1, HCQ 20.00 μg/mL alone, read-out: FIE (fractional inhibitory effect), IL-1β release
  inhibition at 20 µg/mL: 81%
[2]; Donor 1, HCQ 20.00 μg/mL alone, read-out: FIE (fractional inhibitory effect), IL-6 release
  inhibition at 20 µg/mL: 12%
[2]; Donor 1, HCQ 20.00 μg/mL alone, read-out: FIE (fractional inhibitory effect), MIP-1α release
  inhibition at 20 µg/mL: 0%
[2]; Donor 1, HCQ 20.00 μg/mL alone, read-out: FIE (fractional inhibitory effect), TNF-α release
  inhibition at 20 µg/mL: 30%
[2]; Donor 2, HCQ 0.63 μg/mL alone, read-out: FIE (fractional inhibitory effect), IL-1α release
  inhibition at 0.63 µg/mL: 7%
[2]; Donor 2, HCQ 0.63 μg/mL alone, read-out: FIE (fractional inhibitory effect), IL-1β release
  inhibition at 0.63 µg/mL: 6%
[2]; Donor 2, HCQ 1.25 μg/mL alone, read-out: FIE (fractional inhibitory effect), IL-1α release
  inhibition at 1.25 µg/mL: 11%
[2]; Donor 2, HCQ 2.50 μg/mL alone, read-out: FIE (fractional inhibitory effect), IL-1α release
  inhibition at 2.5 µg/mL: 19%
[2]; Donor 2, HCQ 2.50 μg/mL alone, read-out: FIE (fractional inhibitory effect), IL-1β release
  inhibition at 2.5 µg/mL: 7%
[2]; Donor 2, HCQ 5.00 μg/mL alone, read-out: FIE (fractional inhibitory effect), IL-1α release
  inhibition at 5 µg/mL: 49%
[2]; Donor 2, HCQ 5.00 μg/mL alone, read-out: FIE (fractional inhibitory effect), TNF-α release
  inhibition at 5 µg/mL: 2%
[2]; Donor 2, HCQ 10.00 μg/mL alone, read-out: FIE (fractional inhibitory effect), IL-1α release
  inhibition at 10 µg/mL: 68%
[2]; Donor 2, HCQ 10.00 μg/mL alone, read-out: FIE (fractional inhibitory effect), IL-6 release
  inhibition at 10 µg/mL: 11%
[2]; Donor 2, HCQ 10.00 μg/mL alone, read-out: FIE (fractional inhibitory effect), MIP-1α release
  inhibition at 10 µg/mL: 0%
[2]; Donor 2, HCQ 10.00 μg/mL alone, read-out: FIE (fractional inhibitory effect), TNF-α release
  inhibition at 10 µg/mL: 18%
[2]; Donor 2, HCQ 20.00 μg/mL alone, read-out: FIE (fractional inhibitory effect), IL-1α release
  inhibition at 20 µg/mL: 63%
[2]; Donor 2, HCQ 20.00 μg/mL alone, read-out: FIE (fractional inhibitory effect), IL-6 release
  inhibition at 20 µg/mL: 47%
[2]; Donor 2, HCQ 20.00 μg/mL alone, read-out: FIE (fractional inhibitory effect), MIP-1α release
  inhibition at 20 µg/mL: 0%
[3]
  IL-6, relative inhibition of cytokine release (BALF): 0.08
